Results taken from publication PMC9981747, “A covalent BTK ternary complex compatible with targeted protein degradation” (Nature Communications, 2023).

Target: T1, BTK^FL (Homo sapiens, UniProt Q06187+Q13490)
T1 construct: we used a full-length BTK (aa1-659) with a C terminal Tobacco Etch Virus protease (TEV) site; expressed in transfected cells; host or cells: Expi293 (HEK293)
Test: Tetracycline-inducible (T-REx) cIAP1^FL degradation of pre-formed BTK^FL~BCCov in Expi293
Assay type: cell-based
Conditions: pre-formed BTK^FL~BCCov (20 µM, 18 h), then tetracycline induction of cIAP1^FL
Procedure: For assays involving inducible cIAP1 expression, 18 h after compound treatment cells were treated with a final concentration of 1.0 µg/mL tetracycline (Teknova Cat. #T3325) and shaken for another 18 h. These samples were processed for western blotting as detailed above. Washout condition consisted of 4 × 10 mL PBS resuspension, centrifugation, and removal repeated for four cycles before resuspension in cellular media.

T1 sequence (Q06187 whole entry, the tested form may be a part): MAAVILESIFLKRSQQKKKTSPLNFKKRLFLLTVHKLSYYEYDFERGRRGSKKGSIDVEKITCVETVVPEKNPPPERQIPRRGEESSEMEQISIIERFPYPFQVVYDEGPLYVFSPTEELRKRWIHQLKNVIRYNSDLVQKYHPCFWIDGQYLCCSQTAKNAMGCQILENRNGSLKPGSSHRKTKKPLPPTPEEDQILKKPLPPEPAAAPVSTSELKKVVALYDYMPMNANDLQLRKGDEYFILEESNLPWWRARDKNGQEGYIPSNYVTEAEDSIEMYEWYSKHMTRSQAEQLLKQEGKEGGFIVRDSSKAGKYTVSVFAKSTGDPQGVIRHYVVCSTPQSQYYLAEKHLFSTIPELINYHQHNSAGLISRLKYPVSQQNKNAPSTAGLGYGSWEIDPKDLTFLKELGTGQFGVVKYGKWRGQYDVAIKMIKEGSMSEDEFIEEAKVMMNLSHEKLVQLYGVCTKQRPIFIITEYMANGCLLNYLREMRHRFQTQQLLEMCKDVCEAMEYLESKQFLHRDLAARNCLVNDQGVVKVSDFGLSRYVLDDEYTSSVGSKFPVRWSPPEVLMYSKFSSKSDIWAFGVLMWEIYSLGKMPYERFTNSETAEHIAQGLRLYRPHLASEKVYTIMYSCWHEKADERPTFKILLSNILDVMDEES
T1 sequence (Q13490 whole entry, the tested form may be a part): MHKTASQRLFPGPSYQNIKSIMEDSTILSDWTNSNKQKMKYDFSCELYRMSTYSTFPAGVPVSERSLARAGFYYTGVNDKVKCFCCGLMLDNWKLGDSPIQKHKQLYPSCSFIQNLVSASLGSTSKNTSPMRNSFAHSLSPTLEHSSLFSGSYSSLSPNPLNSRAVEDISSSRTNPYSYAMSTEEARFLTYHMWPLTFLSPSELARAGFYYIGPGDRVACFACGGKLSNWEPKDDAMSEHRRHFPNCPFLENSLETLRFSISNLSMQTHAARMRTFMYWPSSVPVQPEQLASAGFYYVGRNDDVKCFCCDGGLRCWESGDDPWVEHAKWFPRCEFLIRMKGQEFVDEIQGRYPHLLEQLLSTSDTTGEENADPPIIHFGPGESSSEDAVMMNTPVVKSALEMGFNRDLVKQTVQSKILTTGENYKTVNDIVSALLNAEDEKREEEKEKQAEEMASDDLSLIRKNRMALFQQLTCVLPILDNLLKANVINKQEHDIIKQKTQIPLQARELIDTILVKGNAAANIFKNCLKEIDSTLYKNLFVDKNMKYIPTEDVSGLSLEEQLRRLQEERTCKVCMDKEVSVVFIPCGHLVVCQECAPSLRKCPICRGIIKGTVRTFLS

CNC(C)C(=O)NC(C(=O)N1CC(NC(=O)COCCN2CCN(CC=CC(=O)N3CCCC(n4nc(-c5ccc(Oc6ccccc6)cc5)c5c(N)ncnc54)C3)CC2)CC1C(=O)NC1CCCc2ccccc21)C1CCCCC1 (stereo not shown) [BCCov] was tested, and the Dmax was about 70%.
